Test results published in patent publication US6436986B1, “Glucocorticoid receptor antagonists for treatment of diabetes” (Abbott Laboratories, priority 1999, dated 2002).

In the case of `COc1cccc2c1-c1cccc(C)c1C(NS(C)(=O)=O)(c1cccc(C(F)(F)F)c1)O2` (stereo not shown) [Example 1, N-[1-methoxy-7-methyl-6-[3-(trifluoromethyl)phenyl]-6H-dibenzo[b,d]pyran-6-yl]methanesulfonamide], the melting point is reported as 217 to 218 °C.
